Measurements reported in patent US4551273A, “Analgesic peptide and process for the preparation thereof” (Eisai Co., Ltd., priority 1983, dated 1985).

Key:
[1] = tested on: guinea pig longitudinal muscle of ileum; test: Assay with guinea pig longitudinal muscle of ileum (inhibition of electrically stimulated contraction); type: tissue-based
Procedure: (A) Assay with guinea pig longitudinal muscle of ileum
This assay was carried out according to the method reported by H. W. Kosterlitz et al. A mature guinea pig was sacrificed by cutting its jugular and subjected to an abdominal operation to take out its ileum as a piece of 40 to 50 cm in length from a region 15 to 20 cm apart from the ileocecal region. Then it was immediately introduced into Ringer's solution and cut into 10 cm portions. The longitudinal muscle was peeled off from each piece by using a scalpel and an applicator, wound with a string and suspended in an isothermal glass cell of 6 ml in volume. Subsequently it was stimulated electrically (0.1 Hz, 0.5 ms, 80-90 V) with platinum electrodes fitted at the upper and lower sides of the cell to record the resulting contractions through a transducer.
H. W. Kosterlitz, A. A. Waterfield: Annu. Rev. Pharmacol., 15, 29 (1975).

[2] = tested on: writhing syndrome in ddY male mouse; test: Acetic acid writhing assay; type: in vivo; conditions: for ED50, Method (A), intravenous / ED50, Method (A), intraventricular: mouse; for ED50, Method (A), intravenous: intravenous (tail vein) administration, acetic acid 10 min after sample; for ED50, Method (A), intraventricular: intraventricular administration, acetic acid 5 min after sample
Procedure: (§1) The following two methods (A) and (B) were employed to examine the analgesic effects of the sample resulting from intravenous or intraventricular administration.
(§2) The sample and control were injected to the tail vein in the case of intravenous administration and to the side cerebral ventricle in the case of intraventricular administration according to a method reported by Haley and McCormick(1).
(A) Acetic acid writhing assay
0.1 ml/10 g of a 0.7% solution of acetic acid was administered to a ddY male mouse of 20 to 26 g in body weight by an intraabdominal injection to examine the inhibiting effect on writhing syndrome which was mainly observed as a stretching of the hind legs as an indication of the analgesic effect. Acetic acid was administered intraabdominally five min after the intraventricular administration and 10 min after the intravenous administration of the sample. Then the resulting writhing syndromes were counted for 15 min.

[3] = tested on: biting response induced by pinching the mouse tail; test: Tail pinch assay; type: in vivo; conditions: intraventricular administration
Procedure: as §1, §2
Response time had been previously determined by a pressure stimulation to select the mice which had responded within 3 sec for the experiment. According to a method reported by Takagi et al.(3), the degree of pain was scored in the following three stages depending on the response time; 0 (shorter than four sec), 1 (four to eight sec), 2 (longer than eight sec). The analgesic effect was calculated by the following equation: [formula]

mouse vas deferens = test: Assay with mouse vas deferens (inhibition of electrically stimulated contraction); design: species or system isolated tissue
Procedure: (B) Assay with mouse vas deferens
This assay was carried out according to the method reported by Hughes et al. A mature male mouse was decapitated and phlebotomized. Then it was immediately subjected to an abdominal operation to take out its right and left vas deferens. Sperm clogged in the ducts was forced out with a pincette in Ringer's solution and both ends of the two ducts were united with a string to form a ring. Then it was stimulated electrically (0.1 Hz, 1 ms, 90 V) in the same manner as described in (A).
Hughes H. W., Kosterlitz H. W., Leslie F. M.: Br. J. Pharmacol., 53, 371 (1975).

[4] = peptide purified from pig duodenum; cited from earlier work
[5] = administered intraventricularly; cited from earlier work
kappa-receptor = kappa-receptor (Homo sapiens, UniProt P41145); conditions: subclass of opiate receptor; different from the μ-receptor; cited from earlier work
Chain of kappa-receptor (P41145 whole entry): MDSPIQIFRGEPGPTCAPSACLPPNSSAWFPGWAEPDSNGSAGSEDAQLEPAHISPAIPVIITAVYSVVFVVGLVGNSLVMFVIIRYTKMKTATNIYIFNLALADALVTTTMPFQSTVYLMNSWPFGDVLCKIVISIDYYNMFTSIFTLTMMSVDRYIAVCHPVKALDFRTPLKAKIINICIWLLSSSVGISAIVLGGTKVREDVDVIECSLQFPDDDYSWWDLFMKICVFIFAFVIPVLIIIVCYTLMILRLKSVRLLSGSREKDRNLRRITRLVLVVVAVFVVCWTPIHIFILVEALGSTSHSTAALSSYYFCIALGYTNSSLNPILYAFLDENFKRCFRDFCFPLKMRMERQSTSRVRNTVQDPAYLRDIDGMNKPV

Compound	IC50 ([1]; concentration required to decrease electrically stimulated contraction to 50%, guinea pig ileum longitudinal muscle, read-out: IC50, Method (A)) [nM]	inhibition of contraction, fold as highly as morphine ([1]; guinea pig longitudinal muscle of ileum, relative to morphine)	analgesic effect compared with morphine on a molar basis ([2]; intravenous administration)	ED50, Method (A), intravenous [2] [nmol/head]	ED50, Method (A), intraventricular [2] [nmol/head]	ED50, Method (B), intraventricular [3] [nmol/head]	IC50 (mouse vas deferens; concentration required to decrease electrically stimulated contraction to 50%, read-out: IC50, Method (B)) [nM]	inhibition of contraction, fold as highly as morphine (mouse vas deferens; relative to morphine)	morphine-like activity relative to morphine [4]	analgesic effect [5]	receptor selectivity (kappa-receptor)
CC[C@@H](C)[C@@H](NC(=O)[C@H](CCCNC(=N)N)NC(=O)[C@H](CCCNC(=N)N)NC(=O)[C@H](CC(C)C)NC(=O)[C@H](Cc1ccccc1)NC(=O)CNC(=O)CNC(=O)[C@H](Cc1ccc(O)cc1)NC)C(=O)N[C@@H](CCCNC(=N)N)C(=O)N1CCC[C@H]1C(=O)N[C@@H](CCCCN)C(=O)N[C@H](CC(C)C)C(=O)N[C@@H](CCCCN)C(=O)N[C@@H](Cc1c[nH]c2ccccc12)C(N)=O [Compound of the present invention, N-Me-Tyr-Gly-Gly-Phe-Leu-Arg-Arg-D.Ile-Arg-Pro-Lys-D.Leu-Lys-Trp-NH2]	0.35 ± 0.2	approximately 270 fold	higher than that of morphine	3.4	0.017	0.017	1.1 ± 0.4	approximately 970 fold	–	–	–
CN1CC[C@]23c4c5ccc(O)c4O[C@H]2[C@@H](O)C=C[C@H]3[C@H]1C5 [Morphine, reference compound]	–	–	–	32	0.63	0.24	–	–	–	–	–
Tyr-Gly-Gly-Phe-Leu-Arg-Arg-Ile-Arg-Pro-Lys-Leu-Lys-Trp-Asp-Asp-Gln (YGGFLRRIRPKLKWDDQ; printed: Tyr-Gly-Gly-Phe-Leu-Arg-Arg-Ile-Arg-Pro-Lys-Leu-Lys-Trp-Asp-Asp-Gln) [prototype peptide, opioid peptide from pig duodenum, found earlier by some of the inventors; called prototype peptide in b11]	–	–	–	–	–	–	–	–	several hundred times as high as morphine	high analgesic effect	combined selectively with a kappa-receptor
